Results on three compounds are retold here after US4551273A, “Analgesic peptide and process for the preparation thereof” (Eisai Co., Ltd., priority 1983, dated 1985).

In general, IC50 refers to the point on the concentration scale where inhibition reaches its midpoint.

The subject of assay [1] is biting response induced by pinching the mouse tail. Description: Tail pinch assay. Type of assay: in vivo. As to conditions: intraventricular administration. The method, then:
(§1) The following two methods (A) and (B) were employed to examine the analgesic effects of the sample resulting from intravenous or intraventricular administration.
(§2) The sample and control were injected to the tail vein in the case of intravenous administration and to the side cerebral ventricle in the case of intraventricular administration according to a method reported by Haley and McCormick(1).
Response time had been previously determined by a pressure stimulation to select the mice which had responded within 3 sec for the experiment. According to a method reported by Takagi et al.(3), the degree of pain was scored in the following three stages depending on the response time; 0 (shorter than four sec), 1 (four to eight sec), 2 (longer than eight sec). The analgesic effect was calculated by the following equation: [formula]

Assay [2] relates to writhing syndrome in ddY male mouse. Description: Acetic acid writhing assay. Type of assay: in vivo. The conditions noted are these: for ED50, Method (A), intravenous / ED50, Method (A), intraventricular: mouse; for ED50, Method (A), intravenous: intravenous (tail vein) administration, acetic acid 10 min after sample; for ED50, Method (A), intraventricular: intraventricular administration, acetic acid 5 min after sample. The method, then: as §1, §2
(A) Acetic acid writhing assay
0.1 ml/10 g of a 0.7% solution of acetic acid was administered to a ddY male mouse of 20 to 26 g in body weight by an intraabdominal injection to examine the inhibiting effect on writhing syndrome which was mainly observed as a stretching of the hind legs as an indication of the analgesic effect. Acetic acid was administered intraabdominally five min after the intraventricular administration and 10 min after the intravenous administration of the sample. Then the resulting writhing syndromes were counted for 15 min.
In general terms: In writhing tests, fewer writhes than in controls are read as antinociception.

Assay [3] deals with mouse vas deferens. Description: Assay with mouse vas deferens (inhibition of electrically stimulated contraction). More on the design: species or system isolated tissue. The method, then: (B) Assay with mouse vas deferens
This assay was carried out according to the method reported by Hughes et al. A mature male mouse was decapitated and phlebotomized. Then it was immediately subjected to an abdominal operation to take out its right and left vas deferens. Sperm clogged in the ducts was forced out with a pincette in Ringer's solution and both ends of the two ducts were united with a string to form a ring. Then it was stimulated electrically (0.1 Hz, 1 ms, 90 V) in the same manner as described in (A).
Hughes H. W., Kosterlitz H. W., Leslie F. M.: Br. J. Pharmacol., 53, 371 (1975).

Assay [4] has as its system guinea pig longitudinal muscle of ileum. The experiment in a line: Assay with guinea pig longitudinal muscle of ileum (inhibition of electrically stimulated contraction). Type of assay: tissue-based. The method, then:
(A) Assay with guinea pig longitudinal muscle of ileum
This assay was carried out according to the method reported by H. W. Kosterlitz et al. A mature guinea pig was sacrificed by cutting its jugular and subjected to an abdominal operation to take out its ileum as a piece of 40 to 50 cm in length from a region 15 to 20 cm apart from the ileocecal region. Then it was immediately introduced into Ringer's solution and cut into 10 cm portions. The longitudinal muscle was peeled off from each piece by using a scalpel and an applicator, wound with a string and suspended in an isothermal glass cell of 6 ml in volume. Subsequently it was stimulated electrically (0.1 Hz, 0.5 ms, 80-90 V) with platinum electrodes fitted at the upper and lower sides of the cell to record the resulting contractions through a transducer.
H. W. Kosterlitz, A. A. Waterfield: Annu. Rev. Pharmacol., 15, 29 (1975).

For assay [5] the following is noted: administered intraventricularly; cited from earlier work.
In assay [6] the target is kappa-receptor (Homo sapiens, UniProt P41145). As to conditions: subclass of opiate receptor; different from the μ-receptor; cited from earlier work.
The conditions of assay [7]: peptide purified from pig duodenum; cited from earlier work.

Chain of kappa-receptor (P41145 whole entry): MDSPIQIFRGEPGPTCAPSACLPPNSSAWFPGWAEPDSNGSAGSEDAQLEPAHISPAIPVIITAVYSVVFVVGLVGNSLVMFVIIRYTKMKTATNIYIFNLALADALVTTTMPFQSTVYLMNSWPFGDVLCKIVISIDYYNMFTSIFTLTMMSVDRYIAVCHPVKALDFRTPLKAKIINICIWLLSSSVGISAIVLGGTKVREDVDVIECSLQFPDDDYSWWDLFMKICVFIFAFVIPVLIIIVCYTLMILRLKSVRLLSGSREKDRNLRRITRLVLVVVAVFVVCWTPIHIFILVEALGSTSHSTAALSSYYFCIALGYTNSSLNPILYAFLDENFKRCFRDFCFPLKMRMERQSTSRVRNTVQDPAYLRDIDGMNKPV

With `CC[C@@H](C)[C@@H](NC(=O)[C@H](CCCNC(=N)N)NC(=O)[C@H](CCCNC(=N)N)NC(=O)[C@H](CC(C)C)NC(=O)[C@H](Cc1ccccc1)NC(=O)CNC(=O)CNC(=O)[C@H](Cc1ccc(O)cc1)NC)C(=O)N[C@@H](CCCNC(=N)N)C(=O)N1CCC[C@H]1C(=O)N[C@@H](CCCCN)C(=O)N[C@H](CC(C)C)C(=O)N[C@@H](CCCCN)C(=O)N[C@@H](Cc1c[nH]c2ccccc12)C(N)=O` [Compound of the present invention, N-Me-Tyr-Gly-Gly-Phe-Leu-Arg-Arg-D.Ile-Arg-Pro-Lys-D.Leu-Lys-Trp-NH2], in assay [1], the “ED50, Method (B), intraventricular” value was 0.017 nmol/head. Besides, in assay [2] (intravenous administration), the “analgesic effect compared with morphine on a molar basis” value was “higher than that of morphine”. Also, in assay [2], the “ED50, Method (A), intravenous” value is 3.4 nmol/head. Further, the “ED50, Method (A), intraventricular” value in assay [2] came out at 0.017 nmol/head. Besides, the IC50 in assay [3] (concentration required to decrease electrically stimulated contraction to 50%, read-out: IC50, Method (B)) turned out to be 1.1 ± 0.4 nM; in assay [4] (concentration required to decrease electrically stimulated contraction to 50%, guinea pig ileum longitudinal muscle, read-out: IC50, Method (A)), 0.35 ± 0.2 nM. Also, the “inhibition of contraction, fold as highly as morphine” value in assay [3] (relative to morphine) is on record as “approximately 970 fold”; in assay [4] (guinea pig longitudinal muscle of ileum, relative to morphine), “approximately 270 fold”.
For `CN1CC[C@]23c4c5ccc(O)c4O[C@H]2[C@@H](O)C=C[C@H]3[C@H]1C5` [Morphine, reference compound], in assay [1], the “ED50, Method (B), intraventricular” value is 0.24 nmol/head. For the same compound, in assay [2], the “ED50, Method (A), intravenous” value is reported as 32 nmol/head and the “ED50, Method (A), intraventricular” value is reported as 0.63 nmol/head.
Consider “Tyr-Gly-Gly-Phe-Leu-Arg-Arg-Ile-Arg-Pro-Lys-Leu-Lys-Trp-Asp-Asp-Gln (YGGFLRRIRPKLKWDDQ; printed: Tyr-Gly-Gly-Phe-Leu-Arg-Arg-Ile-Arg-Pro-Lys-Leu-Lys-Trp-Asp-Asp-Gln) [prototype peptide, opioid peptide from pig duodenum, found earlier by some of the inventors; called prototype peptide in b11]”, for which the analgesic effect entry in assay [5] was “high analgesic effect”. In addition, the receptor selectivity result in assay [6] is on record as “combined selectively with a kappa-receptor”. In addition, the “morphine-like activity relative to morphine” value in assay [7] was “several hundred times as high as morphine”.
